Laboratory results from patent US9566290B2, “Boron-containing small molecules” (Anacor Pharmaceuticals, Inc., priority 2005, dated 2017).
Converted amounts (≈) assume the structure as drawn. Read-outs that look alike come from different tables or passages of the source.

Key:
[1] = Nail penetration, 14-day dosing of radiolabeled compound (Hui protocol); assay type: in vitro ADME
Method: Two nail penetration studies were performed based on the protocol in Hui et al., Journal of Pharmaceutical Sciences, 91(1): 189-195 (2002) (“Hui protocol”). The purpose of this study was to determine and compare the penetration and distribution of C10 in vehicle into the human nail plate in vitro relative to 8% ciclopirox w/w in commercial lacquer (Penlac®).
The study was composed of two groups. The compositions (weight %) of the dosage formulations are as follows: […]
Healthy human finger nail plates were collected from adult human cadavers and stored in a closed container at 0-4° C. Before the experiment, the nail plates were gently washed with normal saline to remove any contamination, then re-hydrated by placing them for three hours on a cloth wetted with normal saline. The nail samples were randomly selected into four groups.
Radioactivity of each group is approximately 0.19±0.01 and 0.22±0.03 μCi/10 μL solutions respectively, for ^14C—C10 (group A), and ^14C-ciclopirox (group C).
Surface washing was started in morning 10 min prior to next dosing, the surface of the nail was washed with cotton tips in a cycle, as follows:
A Teflon one-chamber diffusion cell (PermeGear, Inc., Hellertown, Pa.) was used to hold each nail. To approximate physiological conditions, a small cotton ball wetted with 0.1 mL normal saline was placed in the chamber to serve as a nail bed and provide moisture for the nail plate. Every 3 days, 0.1 mL normal saline was injected through the inlet into the chamber to keep the cotton ball wet. The nail plate was placed on a ledge inside the receptor (1.0 cm in diameter and 0.5 cm high). The ventral (inner) surface of the nail was placed face down and rested on the wet cotton ball. The cells were placed on a platform in a large glass holding tank filled with saturated sodium phosphate solution to keep the cells at a constant humidity of 40%.
After completion of the incubation phase, the nail plate was transferred from the diffusion cell to a clean copper nail holder for sampling process. The nail plate was inverted so that the ventral (nail bed) surface now faced up and the dorsal (outer) dosed surfaced faced down. The copper nail holder has an opening as it sits on top of the stage. When the sampling process initiated, the coarse adjustment was adjusted to move the position of the stage until the nail plate was just touching the tip of the cutter. Then the drill was turned on and the fine adjustment was turned to push the stage closer to the drill, removing a nail core sample. After the above process, approximate 0.40-0.50 mm in depth and 7.9 mm in diameter nail pulverized samples were harvested from the center of the ventral (nail bed) surface of the nail.
The powdered nail samples were collected into a glass scintillation vial and weighted. Aliquots of 5.0 mL Packard soluene-350 (Packard Instrument Company, Meriden, Conn.) was added to the scintillation vial to dissolve the powder. The upper part, the intermediate and dorsal layers of the center of the nail, including the area of application of the dose was cut in the same diameter as the sampled area and was then placed into a glass scintillation vial with 5.0 mL packard soluene-350. The rest of the nail was also placed in a glass scintillation vial with 5.0 mL packard soluene-350.
All radioactivity measurements were conducted with a Model 1500 Liquid Scintillation Counter (Packard Instrument Company, Downer Grove, Ill.). The counter was audited for accuracy using sealed samples of quenched and unquenched standards as detailed by the instrument manual. The ^14C counting efficiency is equal to or greater than 95%. All nail samples pre-treated with packard soluene-350 were incubated at 40° C. for 48 hours followed by the addition of 10 mL scintillation cocktail (HIONIC-FLUOR, Packard Instrument Company, Meriden, Conn.). […]

[2] = system: Saccharomyces cerevisiae strain ATCC 201388; test: MIC (NCCLS M27, YPD or synthetic defined media), haploid parental strain; assay type: cell-based; details: Saccharomyces cerevisiae, read-out: MIC
Method: (§1) The haploid Saccharomyces cerevisiae strain ATCC 201388 was used in the selection of C10 resistant mutants. Spontaneous and EMS-induced resistant mutants were isolated from YPD agar plates containing 4×, 8×, 16×MIC of C10. All minimal inhibitory concentrations (MIC) were determined using NCCLS protocol M27 with the exception of using YPD or synthetic defined media. All yeast and molecular genetic manipulations were essentially performed as described by Guthrie C., et al., Methods in Enzymology, 350: Part B, (2002).
(§2) The minimal inhibitory concentration (MIC) was essentially performed following the NCCLS guidelines outlined in the M27 protocol with the exception of using YPD or synthetic defined media (SDM).

[3] = system: S. cerevisiae C10 resistant mutants (CDC60 editing domain mutations); test: MIC (NCCLS M27), spontaneous and EMS induced C10 resistant mutants; assay type: cell-based, Saccharomyces cerevisiae; details: for MIC: Saccharomyces cerevisiae
Method: as §1
Resistant mutants appeared after 2 d incubation at 30° C. Frequency of resistance was determined by dividing the number of resistant mutants by the total number of cells plated as determined by plating dilutions of the overnight culture on YPD plates.
A 2.5 mL of the overnight culture, which was grown in YPD media, was centrifuged at 700×g for 5 minutes. The cell pellet was resuspended in 10 mL 50 mM potassium phosphate buffer, pH 7.0. The cell suspension was centrifuged again and the cell pellet was resuspended in phosphate buffer to obtain a cell density of 5×10^7 cells/mL as determined by counting the cells using a Petroff Hausser Counting Chamber (Horsham, Pa. USA). The cell suspension was shaken with 300 μL of EMS (Alfa Aesar, Ward Hill, Mass., USA) for 30 min. at 30° C. The mutagenesis was stopped by adding 10% (w/v) sodium thiosulfate (Sigma-Aldrich, St. Louis, Mo., USA), and the cells were pelleted by centrifugation at 700×g for 5 min. and resuspended in 1 mL sterile H2O. This was repeated once more before the cells were plated on YPD agar plates containing 1.6 μg/mL of C10.
as §2

In the case of OB1OCc2cc(F)ccc21 [C10, 5-fluorobenzo[c][1,2]oxaborol-1(3H)-ol], the “absolute amount of drug equivalent per cotton ball sample versus ciclopirox” value [1] is reported as “significantly higher”, the “amount of equivalent in ventral/intermediate center of the nail layer and cotton ball supporting bed versus group C (ciclopirox)” value [1] is reported as “statistically higher” and the “weight normalized concentration of drug equivalent in nail samples versus ciclopirox equivalent” value ([1]; dorsal/intermediate center, ventral/intermediate center and remainder nail, 14-day treatment, p≦0.002) is reported as “significantly higher”. The “Cumulative radioactivity recoveries of carbon-14” value ([1]; human, 14 day) was 88±9.21% of applied dose, the “difference of the two test chemicals in cotton ball supporting bed (C10 versus ciclopirox)” value ([1]; human, 14 day) was 250 times and the MIC ([2]; ATCC201388, Table 1, haploid strain ATCC201388) was 0.5 µg/mL (≈ 3.29 µM). For the same molecule, the MIC ([2]; ATCC201388, Table 2, ATCC201388) was 0.5 µg/mL (≈ 3.29 µM), the “increase in resistance (MIC) of resistant mutants over wildtype” value ([3]; 11 C10 resistant mutants) was 8-64 fold and the “increased resistance over wildtype in the minimal inhibitory concentration test” value ([3]; 23 C10 resistant mutants (Example 41)) was 8-64 fold. It also gave an MIC ([3]; Table 1, mutant (A), CDC60 N415D) of 4 µg/mL (≈ 26.3 µM), an MIC ([3]; Table 1, mutant (B), CDC60 R316I) of 16 µg/mL (≈ 105 µM) and an MIC ([3]; Table 1, mutant (C), CDC60 C326F) of 16 µg/mL (≈ 105 µM). It also gave an MIC ([3]; Table 1, mutant (D), CDC60 G405V) of 32 µg/mL (≈ 211 µM), an MIC ([3]; Table 1, mutant (E), CDC60 C326R) of 16 µg/mL (≈ 105 µM) and an MIC ([3]; Table 1, mutant (F), CDC60 D487G) of 32 µg/mL (≈ 211 µM). The MIC ([3]; Table 1, mutant (G), CDC60 L315V) was 32 µg/mL (≈ 211 µM), the MIC ([3]; Table 1, mutant (H), CDC60 T314M) was 32 µg/mL (≈ 211 µM) and the MIC ([3]; Table 1, mutant (I), CDC60 S416L) was 32 µg/mL (≈ 211 µM). It also gave an MIC ([3]; Table 1, mutant (J), CDC60 D487N) of 32 µg/mL (≈ 211 µM), an MIC ([3]; Table 1, mutant (K), CDC60 T319I) of 32 µg/mL (≈ 211 µM) and an MIC ([3]; Table 2, C10 resistant mutant (C)) of 16 µg/mL (≈ 105 µM). It also gave an MIC ([3]; Table 2, C10 resistant mutant (G)) of 16 µg/mL (≈ 105 µM) and an MIC ([3]; Table 2, C10 resistant mutant (H)) of 16 µg/mL (≈ 105 µM).
